One may read the IC50 as the concentration needed to halve the response being measured.

Molecules are shown by their SMILES. “And” between values parts separate entries of the source, which are not always exact repeats. Identical values can stand only once. Like-named read-outs stand apart in the source and are kept apart here.

Here are results for one compound from PMC6508677, “Identification of druggable small molecule antagonists of the Plasmodium falciparum hexose transporter PfHT and assessment of ligand access to the glucose permeation pathway via FLAG-mediated protein engineering” (PLoS ONE, 2019).

For the experiment, the target named is T1, FTPfHT (Plasmodium falciparum, UniProt Q7KWJ5).
T1 sequence (Q7KWJ5 1-504): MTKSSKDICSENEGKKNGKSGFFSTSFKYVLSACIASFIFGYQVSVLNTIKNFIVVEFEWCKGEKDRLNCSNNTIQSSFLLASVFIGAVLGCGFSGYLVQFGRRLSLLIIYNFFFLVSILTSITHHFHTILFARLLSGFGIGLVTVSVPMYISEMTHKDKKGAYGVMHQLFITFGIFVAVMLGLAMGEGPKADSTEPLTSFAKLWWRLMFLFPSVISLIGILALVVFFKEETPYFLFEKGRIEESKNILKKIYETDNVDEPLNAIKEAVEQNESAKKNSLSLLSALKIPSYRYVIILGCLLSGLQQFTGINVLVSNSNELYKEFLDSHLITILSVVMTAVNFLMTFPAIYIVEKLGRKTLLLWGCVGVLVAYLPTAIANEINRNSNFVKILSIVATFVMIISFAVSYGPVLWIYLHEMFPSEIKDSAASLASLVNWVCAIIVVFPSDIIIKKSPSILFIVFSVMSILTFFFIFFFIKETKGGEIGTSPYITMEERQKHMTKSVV
The experiment in a line: [3H]-D-glucose specific uptake into FTPfHT-containing liposomes. In kind it is biochemical. The conditions noted are these: for D-Glc - L-Glc Uptake, single experiments / D-Glc - L-Glc Uptake, Ave: liposomes; for D-Glc - L-Glc Uptake, Ave: average of Expt 1-3. The text has this: SalI and NotI restriction sites were introduced to the 5’ and 3’ ends, respectively, of FTPfHT cDNA via PCR and then this construct was placed into the multiple cloning site of the pACMV-tetO vector [25]. Stable tetracycline-inducible HEK293S GnTI cell lines expressing FTPfHT were generated using the same protocol previously described for FTGLUT4 [26]. FTPfHT protein was solubilized from FTPfHT/HEK293S GnTI cell pellets with lauryl maltose neopentyl glycol (LMNG) detergent and purified using M2 anti-FLAG affinity gel (Sigma) as described in [27]. The FLAG tag was cleaved using tobacco etch virus (TEV) protease (plasmid purchased from Addgene, Cambridge, MA) at a ratio of 1:20 TEV/PfHT overnight at 4°C in the presence of 1 mM DTT. Based on SDS-PAGE and Blue BANDit protein stain (Amresco, Solon, OH), PfHT protein after FLAG elution was ~95% pure.
Liposomes containing PfHT were made according to Hresko et al.. Briefly, purified PfHT protein in LMNG micelles described above were mixed with Triton X-100 destabilized eggPC/POPA/POPE (70:15:15) large unilamellar vesicles (lipid to protein ratio of 100–125:1 (w/w)). By slowly removing the detergents with Amberlite XAD-2 beads (Supelco Analytical, Bellefonte, PA), PfHT protein spontaneously inserts into the liposomes. After removal of the beads, liposomes were collected by ultracentrifugation, resuspended in buffer, and flash-frozen with liquid nitrogen. Frozen liposomes containing purified PfHT protein were thawed at room temperature followed by extrusion through a 200-nm polycarbonate filter to create liposomes of uniform size. Uptake was started by adding [^3H]-D-glucose (1 μCi/ml, 200 μM cold D-glucose) to PfHT proteoliposomes at room temperature. Transport was stopped at different times with 5 ml of ice-cold quench buffer (50 mM potassium phosphate, 130 mM KCl, pH 7.4) and then filtered by vacuum on a 0.2-μm mixed cellulose ester filter (Advantec, Durham, NC). Filters were subsequently washed with an additional 10 ml of quench buffer. Scintillation fluid (Filter Count, PerkinElmer, Waltham, MA) was added to the filters and the radioactivity counted. [^3H]-L-glucose (1 μCi/ml, 200 μM cold L-glucose) was used to determine nonspecific transport. Specific uptake was calculated by subtracting nonspecific [^3H]-L-glucose from [^3H]-D-glucose uptake. Uptake was normalized to the amount of transporter per reaction, determined by analyzing aliquots of transporter-containing liposomes along with a BSA standard curve on an SDS-polyacrylamide gel stained with Blue Bandit protein stain and quantified using an Odyssey infrared imaging system (LI-COR Biosciences, Lincoln, NB). Data were fitted by least squares nonlinear regression analysis using GraphPad Prism 6.0.

As to `Cc1ccc(S(=O)(=O)CCNC(=O)c2c(-c3c(Cl)cccc3Cl)noc2C)cc1` [WU-1, 3-(2,6-dichlorophenyl)-5-methyl-N-[2-(4-methylbenzenesulfonyl)ethyl]-1,2-oxazole-4-carboxamide], the IC50 was 12.4 µM and 18.8 µM and 8.31 µM (D-Glc - L-Glc uptake in reconstituted liposomes, Expt 1, Expt 2, Expt 3, read-out: IC50, single experiments); 13.2 ± 3.1 µM (S3 Fig, read-out: IC50 for specific D-glucose uptake into FTPfHT liposomes). The “D-Glc - L-Glc Uptake, single experiments” value is 36.56 pmol/µg PfHT and 54.37 pmol/µg PfHT and 37.47 pmol/µg PfHT (WU-1 0.001 µM, Expt 1, Expt 2, Expt 3); 44.52 pmol/µg PfHT and 43.4 pmol/µg PfHT and 46.2 pmol/µg PfHT (WU-1 0.625 µM, Expt 1, Expt 2, Expt 3); 39.01 pmol/µg PfHT and 40.61 pmol/µg PfHT and 38.03 pmol/µg PfHT (WU-1 1.25 µM, Expt 1, Expt 2, Expt 3); 43.49 pmol/µg PfHT and 43.42 pmol/µg PfHT and 42.09 pmol/µg PfHT (WU-1 2.5 µM, Expt 1, Expt 2, Expt 3); 32.42 pmol/µg PfHT and 25.14 pmol/µg PfHT and 27.92 pmol/µg PfHT (WU-1 5 µM, Expt 1, Expt 2, Expt 3); 23.96 pmol/µg PfHT and 25.01 pmol/µg PfHT and 20.67 pmol/µg PfHT (WU-1 10 µM, Expt 1, Expt 2, Expt 3). Besides, the “D-Glc - L-Glc Uptake, single experiments” value runs as follows: (WU-1 40 µM, Expt 1, Expt 2, Expt 3) 10.91 pmol/µg PfHT and 13.9 pmol/µg PfHT and 10.43 pmol/µg PfHT; (WU-1 80 µM, Expt 1, Expt 2, Expt 3) 3.31 pmol/µg PfHT and 3.52 pmol/µg PfHT and 3.4 pmol/µg PfHT; (WU-1 160 µM, Expt 1, Expt 2, Expt 3) 4.44 pmol/µg PfHT and 4.32 pmol/µg PfHT and 4.15 pmol/µg PfHT. Moreover, the “D-Glc - L-Glc Uptake, Ave” value runs as follows: (WU-1 0.001 µM) 42.8 pmol/µg PfHT; (WU-1 0.625 µM) 44.7 pmol/µg PfHT; (WU-1 1.25 µM) 39.22 pmol/µg PfHT; (WU-1 2.5 µM) 43 pmol/µg PfHT; (WU-1 5 µM) 28.49 pmol/µg PfHT; (WU-1 10 µM) 23.21 pmol/µg PfHT. Moreover, the “D-Glc - L-Glc Uptake, Ave” value runs as follows: (WU-1 20 µM) 17.17 pmol/µg PfHT; (WU-1 40 µM) 11.75 pmol/µg PfHT; (WU-1 80 µM) 3.41 pmol/µg PfHT; (WU-1 160 µM) 4.3 pmol/µg PfHT.
